Publication PMC4727990 (Bioorganic & medicinal chemistry letters, 2015)

How the values were obtained:
[1] = tested on: ASCT2; conditions: cited from earlier work
[2] = target: T1, ASCT2 (Rattus norvegicus, UniProt D3ZJ25); assay: ASCT2-mediated 3H-glutamine uptake in C6 cells; assay type: cell-based
T1 sequence (D3ZJ25 1-555): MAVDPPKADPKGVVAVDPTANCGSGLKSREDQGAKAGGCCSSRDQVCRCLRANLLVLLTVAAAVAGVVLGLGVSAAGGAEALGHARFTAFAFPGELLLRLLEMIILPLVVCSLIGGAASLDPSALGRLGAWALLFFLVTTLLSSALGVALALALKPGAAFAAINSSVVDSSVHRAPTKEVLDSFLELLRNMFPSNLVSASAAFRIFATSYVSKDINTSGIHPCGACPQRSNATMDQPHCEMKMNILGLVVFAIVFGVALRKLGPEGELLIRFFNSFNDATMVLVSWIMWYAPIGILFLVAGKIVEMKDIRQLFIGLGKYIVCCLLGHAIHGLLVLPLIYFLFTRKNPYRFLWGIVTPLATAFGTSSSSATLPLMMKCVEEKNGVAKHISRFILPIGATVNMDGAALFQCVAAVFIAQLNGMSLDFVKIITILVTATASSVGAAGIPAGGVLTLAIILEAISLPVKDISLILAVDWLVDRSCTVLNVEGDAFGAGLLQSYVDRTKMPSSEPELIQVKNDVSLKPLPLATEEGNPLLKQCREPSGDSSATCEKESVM

[3] = target: ASCT2; conditions: read-out: apparent affinity; inhibitor of ASCT2; cited from earlier work

N-(2-(morpholinomethyl)phenyl)-L-glutamine [Compound 2]
improvement of activity against ASCT2 compared to GPNA [1]: three-fold improved activity

N[C@@H](CCC(=O)Nc1ccc([N+](=O)[O-])cc1)C(=O)O [Compound 1, L-γ-glutamyl-p-nitroanilide]
potency against ASCT2 [1]: modest potency in the low millimolar range

Cc1cccc(COc2ccccc2CN(CC[C@H](N)C(=O)O)Cc2ccccc2OCc2cccc(C)c2)c1 [Compound 17]
IC50 [2]: 9 µM

N[C@@H](COC(=O)c1ccc(-c2ccccc2)cc1)C(=O)O [Compound 3, O-(4-phenylbenzoyl)-L-serine]
Ki [3]: 30 µM
